Experimental data published in article PMC11882969 (Nature Communications, 2025).
Several values for one entry are separate records, joined by “and”; a condition that tells them apart may be missing. Equal values may be shown once.

How the values were obtained:
Type in all cases: cell-based
[1] = target: panel of 320 non-olfactory GPCRs (Homo sapiens, UniProt Q15077)
[2] = target: panel of 320 non-olfactory GPCRs (Homo sapiens, UniProt P0DMS8)
[3] = target: panel of 320 non-olfactory GPCRs (Homo sapiens, UniProt P35414)
[4] = target: panel of 320 non-olfactory GPCRs (Homo sapiens, UniProt Q92847)
[5] = target: panel of 320 non-olfactory GPCRs (Homo sapiens, UniProt Q9Y2T6)
[6] = target: panel of 320 non-olfactory GPCRs (Homo sapiens, UniProt O43194)
[7] = target: panel of 320 non-olfactory GPCRs (Homo sapiens, UniProt P31391)
[8] = target: panel of 320 non-olfactory GPCRs (Homo sapiens, UniProt P51679)
[9] = target: panel of 320 non-olfactory GPCRs (Homo sapiens, UniProt P23945)
[10] = target: panel of 320 non-olfactory GPCRs (Homo sapiens, UniProt Q14439)
[11] = target: panel of 320 non-olfactory GPCRs (Homo sapiens, UniProt Q9HBW9)
[12] = target: panel of 320 non-olfactory GPCRs (Homo sapiens, UniProt Q9NZD1)
[13] = target: panel of 320 non-olfactory GPCRs (Homo sapiens, UniProt P08172)
[14] = target: panel of 320 non-olfactory GPCRs (Homo sapiens, UniProt P41968)
[15] = target: panel of 320 non-olfactory GPCRs (Homo sapiens, UniProt P25025)
[16] = target: panel of 320 non-olfactory GPCRs (Homo sapiens, UniProt Q9UJ42)
[17] = target: panel of 320 non-olfactory GPCRs (Homo sapiens, UniProt P34969)
[18] = target: panel of 320 non-olfactory GPCRs (Homo sapiens, UniProt P25103)
[19] = target: panel of 320 non-olfactory GPCRs (Homo sapiens, UniProt P35410)
[20] = target: panel of 320 non-olfactory GPCRs (Homo sapiens, UniProt Q01726)
[21] = target: panel of 320 non-olfactory GPCRs (Homo sapiens, UniProt P30550)
[22] = target: panel of 320 non-olfactory GPCRs (Homo sapiens, UniProt Q9BZJ8)
[23] = target: panel of 320 non-olfactory GPCRs (Homo sapiens, UniProt O95800)
[24] = target: panel of 320 non-olfactory GPCRs (Homo sapiens, UniProt P35367)
[25] = target: panel of 320 non-olfactory GPCRs (Homo sapiens, UniProt Q96P68)
[26] = target: panel of 320 non-olfactory GPCRs (Homo sapiens, UniProt Q86SQ6)
[27] = target: panel of 320 non-olfactory GPCRs (Homo sapiens, UniProt Q8IZP9)
[28] = target: panel of 320 non-olfactory GPCRs (Homo sapiens, UniProt P41143)
[29] = target: panel of 320 non-olfactory GPCRs (Homo sapiens, UniProt P47775)
[30] = target: panel of 320 non-olfactory GPCRs (Homo sapiens, UniProt Q01718)
[31] = target: panel of 320 non-olfactory GPCRs (Homo sapiens, UniProt Q9BY21)
[32] = target: panel of 320 non-olfactory GPCRs (Homo sapiens, UniProt P21728)
[33] = target: panel of 320 non-olfactory GPCRs (Homo sapiens, UniProt P08912)
[34] = target: panel of 320 non-olfactory GPCRs (Homo sapiens, UniProt O95136)
[35] = target: panel of 320 non-olfactory GPCRs (Homo sapiens, UniProt P21453)
[36] = target: panel of 320 non-olfactory GPCRs (Homo sapiens, UniProt Q9Y5Y3)
[37] = target: panel of 320 non-olfactory GPCRs (Homo sapiens, UniProt O15218)

panel of 320 non-olfactory GPCRs (Homo sapiens, UniProt P30550), sequence (P30550 whole entry): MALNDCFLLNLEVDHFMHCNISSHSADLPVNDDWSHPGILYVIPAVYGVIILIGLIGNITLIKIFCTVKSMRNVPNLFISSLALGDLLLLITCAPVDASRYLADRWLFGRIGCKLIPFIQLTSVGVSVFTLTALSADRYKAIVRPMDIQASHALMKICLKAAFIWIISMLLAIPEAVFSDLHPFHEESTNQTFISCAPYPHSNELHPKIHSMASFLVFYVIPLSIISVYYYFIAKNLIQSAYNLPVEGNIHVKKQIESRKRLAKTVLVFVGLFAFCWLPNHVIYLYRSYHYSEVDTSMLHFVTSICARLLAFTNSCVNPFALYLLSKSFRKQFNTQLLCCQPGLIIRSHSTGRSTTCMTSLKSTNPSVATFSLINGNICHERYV
panel of 320 non-olfactory GPCRs (Homo sapiens, UniProt P34969), sequence (P34969 whole entry): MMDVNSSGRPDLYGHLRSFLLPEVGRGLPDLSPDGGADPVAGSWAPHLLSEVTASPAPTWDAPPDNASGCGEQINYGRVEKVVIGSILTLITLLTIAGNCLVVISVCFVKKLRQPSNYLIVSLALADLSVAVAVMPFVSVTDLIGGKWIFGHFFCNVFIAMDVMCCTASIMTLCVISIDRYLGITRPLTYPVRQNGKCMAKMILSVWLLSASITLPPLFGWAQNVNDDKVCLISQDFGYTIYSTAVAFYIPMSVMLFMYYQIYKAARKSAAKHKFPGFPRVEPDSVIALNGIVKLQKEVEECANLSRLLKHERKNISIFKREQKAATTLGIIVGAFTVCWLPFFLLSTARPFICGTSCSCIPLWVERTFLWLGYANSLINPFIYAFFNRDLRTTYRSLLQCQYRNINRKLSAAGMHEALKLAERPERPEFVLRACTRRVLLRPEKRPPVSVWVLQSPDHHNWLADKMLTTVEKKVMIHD
panel of 320 non-olfactory GPCRs (Homo sapiens, UniProt Q86SQ6), sequence (Q86SQ6 whole entry): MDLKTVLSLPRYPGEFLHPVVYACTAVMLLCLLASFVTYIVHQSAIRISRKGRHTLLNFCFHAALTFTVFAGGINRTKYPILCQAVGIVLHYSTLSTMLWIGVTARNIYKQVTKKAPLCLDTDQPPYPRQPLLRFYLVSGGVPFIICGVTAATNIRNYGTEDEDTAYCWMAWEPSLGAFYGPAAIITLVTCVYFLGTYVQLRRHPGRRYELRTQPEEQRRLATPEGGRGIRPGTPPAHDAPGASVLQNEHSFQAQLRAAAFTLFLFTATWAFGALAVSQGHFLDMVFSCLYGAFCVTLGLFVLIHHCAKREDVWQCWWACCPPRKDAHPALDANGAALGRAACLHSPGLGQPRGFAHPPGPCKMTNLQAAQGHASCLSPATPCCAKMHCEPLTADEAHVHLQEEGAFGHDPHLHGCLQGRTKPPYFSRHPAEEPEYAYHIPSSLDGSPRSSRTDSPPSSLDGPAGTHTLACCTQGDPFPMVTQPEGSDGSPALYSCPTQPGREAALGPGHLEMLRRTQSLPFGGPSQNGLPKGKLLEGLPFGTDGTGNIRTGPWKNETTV
panel of 320 non-olfactory GPCRs (Homo sapiens, UniProt P51679), sequence (P51679 whole entry): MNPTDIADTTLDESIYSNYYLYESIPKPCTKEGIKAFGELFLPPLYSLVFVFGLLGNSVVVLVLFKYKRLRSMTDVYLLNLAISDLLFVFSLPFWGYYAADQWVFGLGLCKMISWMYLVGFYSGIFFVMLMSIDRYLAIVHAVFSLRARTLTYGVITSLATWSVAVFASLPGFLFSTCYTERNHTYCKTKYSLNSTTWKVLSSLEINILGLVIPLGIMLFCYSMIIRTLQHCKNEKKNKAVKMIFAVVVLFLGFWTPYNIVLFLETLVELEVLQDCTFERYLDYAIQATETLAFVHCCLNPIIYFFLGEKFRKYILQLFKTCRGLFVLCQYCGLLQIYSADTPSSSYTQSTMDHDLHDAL
panel of 320 non-olfactory GPCRs (Homo sapiens, UniProt P23945), sequence (P23945 18-695): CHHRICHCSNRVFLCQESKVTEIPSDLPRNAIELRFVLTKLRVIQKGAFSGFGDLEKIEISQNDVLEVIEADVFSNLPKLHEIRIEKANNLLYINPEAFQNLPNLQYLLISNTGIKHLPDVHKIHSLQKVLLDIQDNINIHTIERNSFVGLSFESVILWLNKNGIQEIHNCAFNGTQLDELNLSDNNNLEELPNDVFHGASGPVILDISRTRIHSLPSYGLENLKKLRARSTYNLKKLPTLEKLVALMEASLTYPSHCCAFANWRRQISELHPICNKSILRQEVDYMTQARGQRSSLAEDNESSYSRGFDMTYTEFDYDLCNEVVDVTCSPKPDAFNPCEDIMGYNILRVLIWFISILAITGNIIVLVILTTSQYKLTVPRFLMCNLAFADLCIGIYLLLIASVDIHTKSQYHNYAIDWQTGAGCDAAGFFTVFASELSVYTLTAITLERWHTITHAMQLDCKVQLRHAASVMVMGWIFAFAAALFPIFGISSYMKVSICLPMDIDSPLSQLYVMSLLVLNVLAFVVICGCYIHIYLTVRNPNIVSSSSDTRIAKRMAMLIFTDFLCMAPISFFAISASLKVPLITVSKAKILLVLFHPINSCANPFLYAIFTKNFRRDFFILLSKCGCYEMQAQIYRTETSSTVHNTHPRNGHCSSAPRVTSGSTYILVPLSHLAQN
panel of 320 non-olfactory GPCRs (Homo sapiens, UniProt Q9UJ42), sequence (Q9UJ42 whole entry): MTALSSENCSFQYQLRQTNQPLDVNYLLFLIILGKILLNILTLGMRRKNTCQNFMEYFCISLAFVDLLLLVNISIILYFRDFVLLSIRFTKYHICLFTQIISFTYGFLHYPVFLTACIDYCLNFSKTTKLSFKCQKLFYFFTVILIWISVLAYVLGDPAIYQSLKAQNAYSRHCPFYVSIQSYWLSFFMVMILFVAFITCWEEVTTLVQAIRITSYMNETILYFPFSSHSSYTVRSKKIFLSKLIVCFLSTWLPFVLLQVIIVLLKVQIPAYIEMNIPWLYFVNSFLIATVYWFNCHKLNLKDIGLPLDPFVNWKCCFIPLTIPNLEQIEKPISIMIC
panel of 320 non-olfactory GPCRs (Homo sapiens, UniProt P21728), sequence (P21728 whole entry): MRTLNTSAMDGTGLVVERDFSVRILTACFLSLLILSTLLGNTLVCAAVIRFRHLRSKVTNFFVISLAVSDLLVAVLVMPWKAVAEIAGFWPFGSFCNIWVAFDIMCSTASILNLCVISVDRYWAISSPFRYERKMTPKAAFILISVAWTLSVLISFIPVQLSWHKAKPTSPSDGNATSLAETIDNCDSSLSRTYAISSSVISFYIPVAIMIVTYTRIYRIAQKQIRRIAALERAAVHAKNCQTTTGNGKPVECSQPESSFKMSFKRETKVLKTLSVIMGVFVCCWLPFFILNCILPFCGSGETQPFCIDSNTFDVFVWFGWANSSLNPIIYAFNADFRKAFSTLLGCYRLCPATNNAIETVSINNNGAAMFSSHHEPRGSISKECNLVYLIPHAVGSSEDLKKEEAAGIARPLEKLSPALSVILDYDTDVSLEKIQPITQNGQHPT
panel of 320 non-olfactory GPCRs (Homo sapiens, UniProt P35367), sequence (P35367 whole entry): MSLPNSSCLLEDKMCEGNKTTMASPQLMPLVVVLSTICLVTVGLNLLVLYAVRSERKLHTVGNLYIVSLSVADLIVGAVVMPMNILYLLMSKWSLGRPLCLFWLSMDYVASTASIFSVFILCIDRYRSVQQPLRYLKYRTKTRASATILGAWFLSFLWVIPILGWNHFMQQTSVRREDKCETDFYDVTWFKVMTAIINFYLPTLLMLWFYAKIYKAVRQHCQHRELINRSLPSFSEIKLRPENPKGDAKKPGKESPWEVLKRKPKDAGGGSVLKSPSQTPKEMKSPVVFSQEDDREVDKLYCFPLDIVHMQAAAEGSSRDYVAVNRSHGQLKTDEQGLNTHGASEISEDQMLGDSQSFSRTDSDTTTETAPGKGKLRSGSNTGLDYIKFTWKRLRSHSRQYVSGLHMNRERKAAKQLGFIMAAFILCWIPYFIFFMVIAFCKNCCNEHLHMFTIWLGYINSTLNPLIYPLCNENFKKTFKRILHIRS
panel of 320 non-olfactory GPCRs (Homo sapiens, UniProt P47775), sequence (P47775 whole entry): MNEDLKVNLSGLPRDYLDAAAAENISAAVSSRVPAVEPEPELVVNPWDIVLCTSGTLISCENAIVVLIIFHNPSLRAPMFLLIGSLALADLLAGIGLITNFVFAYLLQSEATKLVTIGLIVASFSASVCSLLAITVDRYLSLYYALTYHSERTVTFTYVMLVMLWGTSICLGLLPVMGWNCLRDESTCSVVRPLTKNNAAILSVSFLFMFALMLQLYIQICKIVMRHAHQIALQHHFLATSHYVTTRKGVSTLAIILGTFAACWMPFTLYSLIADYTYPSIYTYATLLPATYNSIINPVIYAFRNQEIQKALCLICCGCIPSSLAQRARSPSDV
panel of 320 non-olfactory GPCRs (Homo sapiens, UniProt Q9BY21), sequence (Q9BY21 whole entry): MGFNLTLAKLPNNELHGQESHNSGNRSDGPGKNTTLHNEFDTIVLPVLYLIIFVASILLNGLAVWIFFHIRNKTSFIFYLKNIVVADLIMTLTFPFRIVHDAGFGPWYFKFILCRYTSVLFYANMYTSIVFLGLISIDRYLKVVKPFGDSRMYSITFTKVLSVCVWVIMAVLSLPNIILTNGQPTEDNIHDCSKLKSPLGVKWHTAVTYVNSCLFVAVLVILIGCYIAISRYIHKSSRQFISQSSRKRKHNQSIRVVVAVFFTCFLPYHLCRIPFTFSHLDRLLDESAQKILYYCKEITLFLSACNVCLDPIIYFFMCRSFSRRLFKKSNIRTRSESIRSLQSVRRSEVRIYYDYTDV
panel of 320 non-olfactory GPCRs (Homo sapiens, UniProt P25103), sequence (P25103 whole entry): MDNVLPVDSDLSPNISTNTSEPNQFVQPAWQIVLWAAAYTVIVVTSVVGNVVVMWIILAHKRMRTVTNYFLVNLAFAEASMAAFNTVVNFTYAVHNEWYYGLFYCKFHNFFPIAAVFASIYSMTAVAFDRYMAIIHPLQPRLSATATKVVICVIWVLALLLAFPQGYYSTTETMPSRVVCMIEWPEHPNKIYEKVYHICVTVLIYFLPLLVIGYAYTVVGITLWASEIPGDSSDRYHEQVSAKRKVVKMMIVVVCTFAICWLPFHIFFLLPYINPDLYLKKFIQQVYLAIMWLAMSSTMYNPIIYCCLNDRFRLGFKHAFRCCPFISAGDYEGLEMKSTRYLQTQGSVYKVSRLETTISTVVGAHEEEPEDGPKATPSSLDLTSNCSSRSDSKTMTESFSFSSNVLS

SMILES | Fold of Basal RLU [1] | Fold of Basal RLU [2] | Fold of Basal RLU [3] | Fold of Basal RLU [4] | Fold of Basal RLU [5] | Fold of Basal RLU [6] | Fold of Basal RLU [7] | Fold of Basal RLU [8] | Fold of Basal RLU [9] | Fold of Basal RLU [10] | Fold of Basal RLU [11] | Fold of Basal RLU [12] | Fold of Basal RLU [13] | Fold of Basal RLU [14] | Fold of Basal RLU [15] | Fold of Basal RLU [16] | Fold of Basal RLU [17] | Fold of Basal RLU [18] | Fold of Basal RLU [19] | Fold of Basal RLU [20] | also measured
Cc1cc(C(=O)NC(C)(c2ccco2)c2ccco2)nn1-c1cccc(C(F)(F)F)c1 [‘4936] | 1.2 fold and 1.3 fold | 0.7 fold and 1.1 fold | 1.1 fold and 1.4 fold and 1.2 fold | 1.3 fold and 2.2 fold and 1.6 fold | 1.1 fold and 1.7 fold and 1.4 fold | 0.9 and 0.7 and 0.5 | 1.9 and 1.7 and 2.4 and 1.5 | 0.6 and 0.5 | 1 fold and 0.7 fold and 0.8 fold and 1.1 fold | 0.8 and 0.9 and 1 | 1.6 fold and 1.5 fold and 1.1 fold | 0.8 and 0.6 and 0.9 | 0.8 fold and 0.9 fold and 0.7 fold and 0.6 fold | 1.5 and 0.9 | 1.8 fold and 1.3 fold and 1.4 fold and 1.6 fold | 0.8 fold and 1.1 fold and 0.9 fold | 1 fold and 1.5 fold and 1.8 fold | 1.3 and 1.8 and 1.7 and 2 | 0.8 and 0.4 and 0.6 | 1.2 and 0.8 and 0.7 and 1.1 | Fold of Basal RLU [21]: 0.8 fold and 0.6 fold; Fold of Basal RLU [22]: 0.9 and 0.8 and 1 and 1.1; Fold of Basal RLU [23]: 1.7 fold and 1.4 fold and 1.6 fold; Fold of Basal RLU [24]: 0.9 fold and 1.1 fold and 1.2 fold and 1.5 fold; Fold of Basal RLU [25]: 1.3 fold and 1.5 fold and 2.1 fold; Fold of Basal RLU [26]: 0.8 fold and 0.7 fold and 0.9 fold; Fold of Basal RLU [27]: 0.8 fold and 0.6 fold and 1 fold; Fold of Basal RLU [28]: 0.7 fold and 1.1 fold and 0.6 fold; Fold of Basal RLU [29]: 1.4 fold and 2.1 fold and 1.5 fold and 1.8 fold; Fold of Basal RLU [30]: 1.4 and 1.2 and 1; Fold of Basal RLU [31]: 1 fold and 1.2 fold and 1.1 fold and 1.3 fold; Fold of Basal RLU [32]: 0.7 and 0.9 and 0.8; Fold of Basal RLU [33]: 1 fold and 1.1 fold and 0.9 fold and 0.8 fold; Fold of Basal RLU [34]: 0.9 fold and 1.1 fold and 1.2 fold and 1 fold; Fold of Basal RLU [35]: 1.2 fold and 0.7 fold and 1.1 fold; Fold of Basal RLU [36]: 1.6 and 1.2 and 1.5; Fold of Basal RLU [37]: 1.7 fold and 1.9 fold and 1.4 fold and 2.5 fold
COC(=O)[C@@](C)(NC(=O)c1cc(C)n(-c2cccc(C(F)(F)F)c2)n1)c1cccs1 [‘1350] | 1.4 fold and 1.2 fold and 1.1 fold | 1 fold and 0.9 fold and 1.2 fold | 0.9 fold and 1.1 fold and 1.2 fold and 1 fold | 1.4 fold and 1.8 fold and 1.6 fold | 1.4 fold and 1.3 fold and 1.5 fold | 0.7 and 0.8 and 1 | 2.3 and 2 and 1.6 | 1.1 and 1 and 0.9 | 1 fold and 1.2 fold and 0.7 fold and 0.8 fold | 0.7 and 0.8 and 1 and 0.9 | 1.3 fold and 1.6 fold and 2.3 fold and 1.8 fold | 1.1 and 1 and 0.6 and 0.8 | 0.9 fold and 0.6 fold and 0.8 fold | 1.3 and 0.9 and 1.1 and 0.7 | 0.8 fold and 1 fold and 1.1 fold | 0.7 fold and 1.1 fold and 1 fold | 0.9 fold and 1.4 fold and 1 fold | 1.1 and 1.2 and 1.7 | 1.9 and 1.3 and 1 and 1.2 | 0.7 and 0.6 and 1 | Fold of Basal RLU [21]: 0.8 fold and 1.2 fold; Fold of Basal RLU [22]: 1 and 0.7 and 0.9 and 0.8; Fold of Basal RLU [23]: 1.1 fold and 1 fold and 1.2 fold and 2 fold; Fold of Basal RLU [24]: 0.9 fold and 1 fold and 1.1 fold; Fold of Basal RLU [25]: 1.1 fold and 1.3 fold and 1.6 fold; Fold of Basal RLU [26]: 0.9 fold and 1.1 fold and 1.3 fold; Fold of Basal RLU [27]: 1.1 fold and 1.2 fold and 0.9 fold and 0.7 fold; Fold of Basal RLU [28]: 1 fold and 0.9 fold and 0.8 fold; Fold of Basal RLU [29]: 1.5 fold and 1.3 fold and 0.8 fold; Fold of Basal RLU [30]: 1 and 1.3 and 0.7; Fold of Basal RLU [31]: 1 fold and 0.9 fold and 1.1 fold; Fold of Basal RLU [32]: 0.9 and 1.1 and 0.8; Fold of Basal RLU [33]: 0.9 fold and 1.4 fold and 1.1 fold and 1.7 fold; Fold of Basal RLU [34]: 1.3 fold and 0.9 fold and 1.2 fold and 1 fold; Fold of Basal RLU [35]: 0.9 fold and 1 fold and 0.8 fold and 0.7 fold; Fold of Basal RLU [36]: 0.8 and 1.2 and 1.3 and 1; Fold of Basal RLU [37]: 1.1 fold and 0.8 fold and 1.4 fold
